# Test system: phosphorylated MCM2 at Serine 53 (pMCM2-S53) in H1299 cells
# Test: Acumen imaging assay for detection of phosphorylated MCM2 in H1299 cells
# Assay type: cell-based
# Details: 4 hours treatment, Hydrate, read-out: IC50, inhibition of pMCM2-S53
# Method: The Acumen® eX3 is used to determine the effect of compounds on the formation of endogenous phosphorylated MCM2 at Serine 53 (pMCM2-S53). Phosphorylation of MCM2 by CDC7 is determined using specific anti-pMCM2-S53 antibody and quantified with fluorescent tagged secondary antibodies by Acumen® eX3 to monitor CDC7 activity in cells. Phosphorylation of MCM2 at Serine 53 is known to be correlated to CDC7 inhibition.
# H1299 cells (ATCC #CRL-5803) are maintained in RPMI-1640 (Hyclone SH30809.01) growth medium supplemented with 10% FBS. Cells are harvested using standard cell culture procedures and then counted using Vi-Cell XR Cell Viability Analyzer (Beckman Counter). 3000-6000 H1299 cells in 100 μL of growth medium are plated into each well of Biocoat Poly-D-Lysine 96-well black/clear plate with flat bottom BioCoat™ Multiwell (Becton Dickinson) cell culture plates 356640 and incubated overnight at 37° C., 5% CO2.
# Cells are treated with the test compound (50 μL/well) diluted in medium containing 0.6% DMSO and incubated for 4 hours at 37° C. To each well is added 7.4% formaldehyde (150 μL) diluted with PBS from 37% formaldehyde stock and the plates are incubated at room temperature for 30 minutes. Formaldehyde is removed and cold methanol (100 μL) is added. The plates are incubated for 20 minutes at 4° C. to permeabilize the cells. Plates are washed 3× with 100 μL/well of PBS. […] The plates are sealed with black seal and are read on the Acumen® eX3 (TTP LABTECH) using optical filter 500-530 nanometer and 575-640 nanometer for Alexa Fluor 488 and propidium iodide, respectively. The number of pMCM2-S53 positive cells is normalized to total cells for each well and are calculated as percent inhibition relative to on-plate controls. […]
structure (smiles),measurement,value
"CC1(c2ncncc2F)NC(=O)c2cc(-c3cn[nH]c3)ccc21 (single isomer, unassigned; isomer 2) [Example 4, 3-(5-Fluoropyrimidin-4-yl)-3-methyl-6-(1H-pyrazol-4-yl)isoindolin-1-one, Isomer 2, Hydrate]",IC50,290 nM

# From patent US9156824B2, “CDC7 inhibitors” (Eli Lilly and Company, priority 2013, dated 2015)
